A short description of the data set: Human HepG2 cell viability assay in 384 well format. In kind it is toxicity, cell-based. More on the design: dose 125 nL, time 70.5 hour; cytotoxicity at 70.5 h: concentration not given beside the values. The note with it: HepG2 cells, read-out: Inhibition.

Each structure is given as a SMILES string.

The record followed here is ChEMBL document CHEMBL3507680, “University of Dundee, Gates Library screen for HepG2 cell viability”.

Turning to `C[C@@H]1CN(Cc2nc(Cc3ccccc3F)no2)C[C@H](C)O1`, the cytotoxicity at 70.5 h came out at 32.5%.

Turning to `CCc1ccc(CN(C)Cc2nc(COc3ccccc3)no2)nc1`, the cytotoxicity at 70.5 h is -7.21%.

`CC(=O)NCc1nc(CC(C)C)nn1-c1cccc(C)c1`: the cytotoxicity at 70.5 h is -2.35%.

`COCc1noc(Cn2c(=O)[nH]c3ccccc32)n1`: the cytotoxicity at 70.5 h is -10.2%.

Regarding `CO[C@H]1CN(C(=O)c2cc3ccccc3[nH]2)CC[C@H]1N`, the cytotoxicity at 70.5 h was found to be 18.2%.

As to `CC(C)CN1CC2(CCN(C(=O)C3CSC(C)(C)C(=O)N3)CC2)CC1=O` (configuration not stated), the cytotoxicity at 70.5 h was -1.86%.

With `CC(=O)N1CCN(C(=O)c2cc(C(C)C)no2)[C@H]2CS(=O)(=O)C[C@H]21`, the cytotoxicity at 70.5 h is -3.64%.

Regarding `CSc1ncc(C(=O)N2CCC(O)(CN3CCOCC3)C(C)(C)C2)cn1` (configuration not stated), the cytotoxicity at 70.5 h is -0.923%.

Consider `CCc1ncc(C(=O)N2CCC(O)(CN3CCOCC3)C(C)(C)C2)cn1` (configuration not stated), for which the cytotoxicity at 70.5 h is -0.715%.

Regarding `CCCc1nc(C(=O)N2CCN(C(=O)c3ccc(OC)cc3)CC2)cs1`, the cytotoxicity at 70.5 h was -5.88%.

For `O=C(c1ccco1)N1CCN(Cc2nc(C3CC3)no2)CC1`, the cytotoxicity at 70.5 h is -5.91%.

Regarding `CN(CC(=O)N1CCC(OCc2cccnc2)CC1)c1ccccc1`, the cytotoxicity at 70.5 h was -17.1%.

For the compound `COc1ccccc1N1CCN(C(=O)CCCS(N)(=O)=O)C(C)C1` (configuration not stated), the cytotoxicity at 70.5 h was -5.3%.

With `COc1ccc(N2CCC(N3CCOC(C(F)(F)F)C3)CC2)cc1` (configuration not stated), the cytotoxicity at 70.5 h is -7.02%.

Turning to `O=S(=O)(N1CCOCC1)N1CCCCC1CCn1cccn1` (configuration not stated), the cytotoxicity at 70.5 h was found to be 3.71%.

As to `CC(C)[C@@H]1CN(C(=O)CN(C)Cc2ccc(F)cc2)C[C@H]1C(=O)O`, the cytotoxicity at 70.5 h was -1.04%.

As to `Cc1nn(C)c(C)c1CN(Cc1cccn1-c1cccnc1)C(C)C`, the cytotoxicity at 70.5 h turned out to be 11.8%.

For the compound `COc1ccc(Cn2c(Cc3c(C)n[nH]c3C)n[nH]c2=O)cc1`, the cytotoxicity at 70.5 h is -12.9%.

Regarding `CN(CCc1noc(C2CC2)n1)C(=O)CN1C(=O)COc2ccccc21`, the cytotoxicity at 70.5 h is -4.64%.

Consider `CCCc1nc(C)c(CN2CC3(CCOC3)CCC2=O)s1` (configuration not stated), for which the cytotoxicity at 70.5 h was -8.32%.

For the compound `O=C(O)c1cccnc1CN(Cc1ccsc1)C1CC1`, the cytotoxicity at 70.5 h was -6.7%.

For `CCN(CCOC)C(=O)c1cc(COc2ccc3c(c2)CCCC3)on1`, the cytotoxicity at 70.5 h was -3.35%.

Regarding `Cc1ccccc1C(CC(=O)NCC(N)=O)c1ccccc1` (configuration not stated), the cytotoxicity at 70.5 h is -5.12%.

On to `COCCC(=O)N1CCCC(CCC(=O)NCc2ccccc2F)C1` (configuration not stated), for which the cytotoxicity at 70.5 h is -6.55%.

For `CCOC(=O)c1coc(N2CCC(C(C)N3CCCC3)CC2)n1` (configuration not stated), the cytotoxicity at 70.5 h was -1.58%.

Turning to `CCC[C@H]1CN(CCS(C)(=O)=O)C[C@@H]1NC(=O)c1cc(CC)on1`, the cytotoxicity at 70.5 h was -2.15%.

`CN(C)Cc1nnc(C2CCCN(c3cc(C(F)(F)F)ccn3)C2)n1C` (configuration not stated): the cytotoxicity at 70.5 h was -11.1%.

Regarding `Cc1ccc(CN2CCN(C3CCCC3)CC2CCO)o1` (configuration not stated), the cytotoxicity at 70.5 h amounted to 8.76%.

Consider `CC1(C)CN(Cc2nnc(-c3cccnc3)o2)CC[C@]1(C)O`, for which the cytotoxicity at 70.5 h came out at 8.67%.

Take `CCC(C)(C)c1cc(-c2c(C)nn(CCO)c2C)c(C#N)c(N)n1`: the cytotoxicity at 70.5 h is 12.5%.

`CN(C(=O)CCc1cccs1)C1CCCN(C2Cc3ccccc3C2)C1` (configuration not stated): the cytotoxicity at 70.5 h is -1.24%.

Consider `Cc1cnn(C(C)C2CC2)c1NC(=O)c1ncccc1O` (configuration not stated), for which the cytotoxicity at 70.5 h worked out at 9.8%.

With `CCOC(=O)N1CCC(Nc2cc(CC)nc3c(C)c(C)nn23)CC1`, the cytotoxicity at 70.5 h was -4.43%.

On to `CNc1ncccc1C(=O)N1CCCC2(C1)C(=O)N(C)c1ccccc12` (configuration not stated), for which the cytotoxicity at 70.5 h is -7.64%.

In the case of `O=C(O)c1cccnc1CN1CCCCC1CCc1cccc(O)c1` (configuration not stated), the cytotoxicity at 70.5 h came to 9.13%.

Take `COCCN(Cc1cccc(O)c1)Cc1ccccc1F`: the cytotoxicity at 70.5 h stood at 1.04%.

Consider `Cc1nc(NC(=O)N(C)Cc2ccsc2)nn1C`, for which the cytotoxicity at 70.5 h is -7.49%.

Regarding `CCC1CN(C(=O)c2ccccc2C(C)=O)CCN1C(C)C` (configuration not stated), the cytotoxicity at 70.5 h was -4.04%.

`CN(Cc1ccc(CCC(C)(C)O)cc1)Cc1cccc(O)c1`: the cytotoxicity at 70.5 h is -8.03%.

Regarding `COc1cc(N(C)CCC(O)c2ccccc2)ncn1` (configuration not stated), the cytotoxicity at 70.5 h was -3.53%.

`CCCNC(=O)C(C)Oc1ccccc1` (configuration not stated): the cytotoxicity at 70.5 h is -5.34%.

Turning to `Cc1cnc(C(=O)N[C@H]2CN(CCS(C)(=O)=O)C[C@@H]2C2CC2)cn1`, the cytotoxicity at 70.5 h is 12.4%.

As to `COc1ccc2c(c1)OCC(CNC(=O)CCc1c(C)n[nH]c1C)C2` (configuration not stated), the cytotoxicity at 70.5 h is -1.4%.

Regarding `C[C@@H]1CN(c2nc3c(cc2C(N)=O)CCC3)C[C@]1(C)O`, the cytotoxicity at 70.5 h is -15%.

In the case of `CN(C)CCC(Nc1nc(N)nc2c1CCNCC2)c1ccccc1` (configuration not stated), the cytotoxicity at 70.5 h is -8.45%.

Consider `Cc1cc(C)nc(N2CCN(C(=O)c3ccc(C4CCCO4)s3)CC2)n1` (configuration not stated), for which the cytotoxicity at 70.5 h was -11.5%.

For the compound `Cc1nn(C)c(C)c1CCC(=O)N(C)Cc1ccc2nsnc2c1`, the cytotoxicity at 70.5 h is -4.18%.

For the compound `Cc1nn(C)c(C)c1-c1c(-c2ccccc2)ncn1[C@H](CO)C(=O)O`, the cytotoxicity at 70.5 h was -4.59%.

Take `CN(C)c1nc2c(c(N3CCC4(CCCNC4=O)C3)n1)CCCC2` (configuration not stated): the cytotoxicity at 70.5 h is 8.69%.

Take `CCS(=O)(=O)CCNc1nc(C2CCCC2)nc2c1cnn2C`: the cytotoxicity at 70.5 h is -6.16%.

Turning to `COCCCC1(C(=O)O)CCCN(Cc2cc3c(cc2C)OCCO3)C1` (configuration not stated), the cytotoxicity at 70.5 h was -8.65%.

For the compound `c1cc(-c2n[nH]c(CNc3nnc(C4CC4)o3)n2)ccn1`, the cytotoxicity at 70.5 h turned out to be 0.716%.

In the case of `O=C1CC[C@H]2CN(Cc3cccnc3)CC[C@H]2N1CCc1c[nH]cn1`, the cytotoxicity at 70.5 h is -1.83%.

For `Cc1csc(N2CCCN(C3Cc4ccccc4C3)CC2)n1`, the cytotoxicity at 70.5 h is -15.6%.

Regarding `Cc1nc(C2CCNCC2)cc(N(C)Cc2cc3cc(F)ccc3[nH]2)n1`, the cytotoxicity at 70.5 h is -1.29%.

With `COc1ncc(-c2cc(NCCN(C)C)nc3[nH]ccc23)c(OC)n1`, the cytotoxicity at 70.5 h came to 15.3%.

In the case of `Cc1[nH]c2c(F)cccc2c1CC(=O)NCCCc1csc(N)n1`, the cytotoxicity at 70.5 h was 5.37%.

In the case of `CC(C)c1cc(C2CCN(Cc3cc(F)cc(F)c3)CC2)[nH]n1`, the cytotoxicity at 70.5 h is -1.12%.

With `COCC(=O)N1C[C@H]2CNC[C@@]2(C(=O)NCc2snnc2C)C1`, the cytotoxicity at 70.5 h was -6.27%.

Consider `CC(C)[C@H]1CN(Cc2ccccn2)C[C@@H]1NC(=O)CC1CCC1`, for which the cytotoxicity at 70.5 h was -3.45%.

Turning to `CC(C)(O)CCc1ccc(C(=O)N2CCN(CCS(C)(=O)=O)CC2)cc1`, the cytotoxicity at 70.5 h was 0.886%.

For the compound `COCC(=O)N1CC[C@]2(O)CCN(Cc3ccsc3)C[C@@H]2C1`, the cytotoxicity at 70.5 h was -7.01%.

For `CCSCCNc1nc2c(s1)c(C)nn2C`, the cytotoxicity at 70.5 h is -14.5%.

In the case of `Cc1ccc2nc(CN(C)Cc3[nH]nc4c3CCC4)[nH]c2c1C`, the cytotoxicity at 70.5 h amounted to 6.49%.

On to `Cc1cnc(N)nc1NCCSCc1[nH]cnc1C`, for which the cytotoxicity at 70.5 h is -1.94%.

`CN1CCC(Cc2noc(-c3cccc(Oc4ncccn4)c3)n2)CC1`: the cytotoxicity at 70.5 h is -2%.

Regarding `CCC1(CO)CCN(C(=O)c2cc(COc3ccccc3F)[nH]n2)CC1`, the cytotoxicity at 70.5 h stood at 15.1%.

In the case of `CN(CCO)Cc1nnc(C2CCN(C(=O)CN3CCCC3)CC2)n1C`, the cytotoxicity at 70.5 h is -0.947%.

As to `Nc1ncccc1CN1C[C@@H](C(=O)O)[C@H](c2cccc(F)c2)C1`, the cytotoxicity at 70.5 h worked out at 1.75%.

On to `N#Cc1cccnc1N1CCN(S(=O)(=O)NCc2ccccc2)CC1`, for which the cytotoxicity at 70.5 h is -18.9%.

Regarding `Cc1ccc(-c2ccnc(NCC3(N(C)C)CCOCC3)n2)c(C)n1`, the cytotoxicity at 70.5 h is -4%.

In the case of `CN(C)CCN1CC2(CCCN(c3ncc(Cl)cc3F)C2)CCC1=O` (configuration not stated), the cytotoxicity at 70.5 h is -5.68%.

With `CCCN1CCCC2(CCN(Cc3cncn3C3CCCCC3)C2)C1=O` (configuration not stated), the cytotoxicity at 70.5 h was -7.64%.

Take `Cc1ccc(NC2(C(=O)NCCCc3c(C)n[nH]c3C)CCCC2)cc1`: the cytotoxicity at 70.5 h was -5.19%.

For the compound `CC(=O)c1ccc(N2CCC3(CC2)CC(=O)N(C)C3)nc1`, the cytotoxicity at 70.5 h turned out to be 4.13%.

Turning to `Cc1nc(N)nc(C)c1CC(=O)NCc1ccc2nonc2c1`, the cytotoxicity at 70.5 h is -9.8%.

For the compound `Cc1ncsc1CCN(C)C(=O)CN1CCCCC1=O`, the cytotoxicity at 70.5 h was 12.5%.

Turning to `O=C(CCC(=O)N1CCC(OCc2cccnc2)CC1)c1ccccc1`, the cytotoxicity at 70.5 h is -1.13%.

Consider `COc1ccc(C(=O)N2C[C@@H](CN3CCCCC3)[C@@H](CO)C2)cc1Cl`, for which the cytotoxicity at 70.5 h is -1.81%.

Turning to `CSc1ccc2cc(CN(C)CCO)c(=O)[nH]c2c1`, the cytotoxicity at 70.5 h is -16.3%.

Take `COc1cc(OC)cc(-c2cccc3c2OC(CN)C3)c1` (configuration not stated): the cytotoxicity at 70.5 h came to 24.7%.

With `O=C(c1ccccc1)N1CCN(CC2CCOc3ccccc3C2)CC1` (configuration not stated), the cytotoxicity at 70.5 h was -2.76%.

Take `CCC(c1nc(C(C)C)nn1-c1ccncc1C)n1cccn1` (configuration not stated): the cytotoxicity at 70.5 h was -9.34%.

In the case of `CN(C)c1ccc(C(=O)N2C[C@@H](CN3CCCCC3)[C@@H](CO)C2)cc1`, the cytotoxicity at 70.5 h is -4.9%.

Turning to `Cc1cccc(C(C(=O)NCc2csc(-c3ncccn3)n2)N(C)C)c1` (configuration not stated), the cytotoxicity at 70.5 h was -0.325%.

For the compound `O=C1OCCN1Cc1ncnn1Cc1c(F)cccc1Cl`, the cytotoxicity at 70.5 h came out at 11.9%.

Consider `Cc1ncc(C(=O)N2CCCN(Cc3ccccc3F)CC2)c(O)n1`, for which the cytotoxicity at 70.5 h was -12.9%.

On to `Cc1ccc(OCC2CCCN(C(=O)CN3CCOCC3)C2)cc1` (configuration not stated), for which the cytotoxicity at 70.5 h was determined as 2.89%.

Turning to `CNc1ncc(CN(C)C(=O)c2cccc(Cn3cccn3)c2)cn1`, the cytotoxicity at 70.5 h is -6.97%.

Take `COc1cc(N2CCC(c3nccn3Cc3cccnc3)CC2)ncn1`: the cytotoxicity at 70.5 h is -5.38%.

Take `Cc1ccc(-c2nccn2-c2ccc(OC3CCN(C)CC3)cc2)o1`: the cytotoxicity at 70.5 h amounted to 17%.

As for `CCCC(Nc1nc(COCC)nc2c1CCNCC2)c1nccn1C` (configuration not stated), the cytotoxicity at 70.5 h was 2.1%.

Consider `COc1ccc(-n2nc(C3CC3)nc2CCn2cnnn2)cc1`, for which the cytotoxicity at 70.5 h stood at 26.8%.

As for `O=C(CCOc1ccccc1)N1CCCC(c2ncc[nH]2)C1` (configuration not stated), the cytotoxicity at 70.5 h was -20.2%.

With `Cn1ccnc1CN(CCO)C(=O)c1cnc2ccccc2c1`, the cytotoxicity at 70.5 h was 0.182%.

On to `CC[C@@]1(O)CCN(C(=O)c2ccc(OC(F)F)cc2)C[C@H]1O`, for which the cytotoxicity at 70.5 h was -4.22%.

With `CC(=O)NCC1CCC2(CCN(c3nccc(C4CCCC4)n3)CC2)O1` (configuration not stated), the cytotoxicity at 70.5 h was -7.84%.
